The values below come from US9273058B2 (BRISTOL-MYERS SQUIBB COMPANY, priority 2013, dated 2016).

The target in test [1] is CK1ε (Homo sapiens, UniProt P49674). Briefly: CK1ε kinase assay (Caliper LabChip electrophoretic separation of fluoresceinated peptide substrate and product). It counts as biochemical. The following applies: 200 pM CK1ε, 50 μM ATP, 1.5 μM peptide, 22 hours at room temperature. In short, it runs like this:
(§1)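 Eleven-concentration compound series in kinase reactions run for 22 hours at room temperature. Terminated with EDTA, with product conversion read by electrophoretic separation. Non-linear regression gave IC50.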

In test [2] the target is CK1δ (Homo sapiens, UniProt P48730). Briefly: CK1δ kinase assay (Caliper LabChip electrophoretic separation of fluoresceinated peptide substrate and product). As to conditions: 200 pM CK1δ, 50 μM ATP, 1.5 μM peptide, 22 hours at room temperature. It counts as biochemical. An outline of the steps: as §1

The structures appear in SMILES notation. pIC50: −log10 of the molar value. Like-named read-outs stand apart in the source and are kept apart here.

Chain of CK1δ (P48730 whole entry): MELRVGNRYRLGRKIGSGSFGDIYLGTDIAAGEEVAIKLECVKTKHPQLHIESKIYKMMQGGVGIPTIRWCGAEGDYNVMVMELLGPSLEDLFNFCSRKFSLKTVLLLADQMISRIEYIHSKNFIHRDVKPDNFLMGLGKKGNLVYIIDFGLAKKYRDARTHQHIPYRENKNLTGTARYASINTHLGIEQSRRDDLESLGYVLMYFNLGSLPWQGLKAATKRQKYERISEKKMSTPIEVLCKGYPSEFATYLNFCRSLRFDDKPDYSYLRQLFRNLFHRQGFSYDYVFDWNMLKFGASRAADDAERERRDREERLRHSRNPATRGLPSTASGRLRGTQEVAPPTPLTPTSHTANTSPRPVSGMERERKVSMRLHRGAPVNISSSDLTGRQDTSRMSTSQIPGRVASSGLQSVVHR
Chain of CK1ε (P49674 whole entry): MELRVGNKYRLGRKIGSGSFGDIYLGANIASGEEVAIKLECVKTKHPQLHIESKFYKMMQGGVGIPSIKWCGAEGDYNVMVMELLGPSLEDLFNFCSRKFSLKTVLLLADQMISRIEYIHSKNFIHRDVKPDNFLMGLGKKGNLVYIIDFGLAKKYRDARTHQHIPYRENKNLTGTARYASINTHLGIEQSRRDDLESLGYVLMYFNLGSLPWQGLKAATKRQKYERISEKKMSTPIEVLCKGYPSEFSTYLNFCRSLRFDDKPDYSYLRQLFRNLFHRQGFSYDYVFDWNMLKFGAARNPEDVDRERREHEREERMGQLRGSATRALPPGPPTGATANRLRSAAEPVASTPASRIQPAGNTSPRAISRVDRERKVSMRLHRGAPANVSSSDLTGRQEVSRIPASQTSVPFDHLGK

`NC(=O)c1c(-c2ccc(F)c(Cl)c2)nn2c1CN(C(=O)NC1(c3cccnc3)CC(F)(F)C1)CC2` [Compound 311, 2-(3-Chloro-4-fluorophenyl)-N^5-(3,3-difluoro-1-(pyridin-3-yl)cyclobutyl)-6,7-dihydropyrazolo[1,5-a]pyrazine-3,5(4H)-dicarboxamide]: the pIC50 in test [1] (read-out: CK1ε IC50 range) and in test [2] (read-out: CK1δ IC50 range) was 8.00 to 11.00 in each case.

For `NC(=O)c1c(-c2cccc(Cl)c2)nn2c1CN(C(=O)NC1(c3cccnc3)CC(F)(F)C1)CC2` [Compound 312, 2-(3-Chlorophenyl)-N^5-(3,3-difluoro-1-(pyridin-3-yl)cyclobutyl)-6,7-dihydropyrazolo[1,5-a]pyrazine-3,5(4H)-dicarboxamide], the pIC50 in test [1] (read-out: CK1ε IC50 range) and in test [2] (read-out: CK1δ IC50 range) was 8.00 to 11.00 in each case.

`NC(=O)c1c(-c2ccc(Cl)c(Cl)c2)nn2c1CN(C(=O)NC1(c3cccnc3)CC(F)(F)C1)CC2` [Compound 313, 2-(3,4-Dichlorophenyl)-N^5-(3,3-difluoro-1-(pyridin-3-yl)cyclobutyl)-6,7-dihydropyrazolo[1,5-a]pyrazine-3,5(4H)-dicarboxamide]: the pIC50 in test [1] (read-out: CK1ε IC50 range) and in test [2] (read-out: CK1δ IC50 range) was 8.00 to 11.00 each time.

On to `N#Cc1ccc(C2(NC(=O)N3CCn4nc(-c5ccc(F)c(Cl)c5)c(C(N)=O)c4C3)CC(F)(F)C2)cc1` [Compound 314, 2-(3-Chloro-4-fluorophenyl)-N^5-(1-(4-cyanophenyl)-3,3-difluorocyclobutyl)-6,7-dihydropyrazolo[1,5-a]pyrazine-3,5(4H)-dicarboxamide], for which the pIC50 in test [1] (read-out: CK1ε IC50 range) and in test [2] (read-out: CK1δ IC50 range) was 8.00 to 11.00 in each case.

`N#Cc1ccc(C2(NC(=O)N3CCn4nc(-c5cccc(Cl)c5)c(C(N)=O)c4C3)CC(F)(F)C2)cc1` [Compound 315, 2-(3-Chlorophenyl)-N^5-(1-(4-cyanophenyl)-3,3-difluorocyclobutyl)-6,7-dihydropyrazolo[1,5-a]pyrazine-3,5(4H)-dicarboxamide]: the pIC50 in test [1] (read-out: CK1ε IC50 range) and in test [2] (read-out: CK1δ IC50 range) was 8.00 to 11.00 in each case.

Regarding `N#Cc1ccc(C2(NC(=O)N3CCn4nc(-c5ccc(Cl)c(Cl)c5)c(C(N)=O)c4C3)CC(F)(F)C2)cc1` [Compound 316, N^5-(1-(4-Cyanophenyl)-3,3-difluorocyclobutyl)-2-(3,4-dichlorophenyl)-6,7-dihydropyrazolo[1,5-a]pyrazine-3,5(4H)-dicarboxamide], the pIC50 in test [1] (read-out: CK1ε IC50 range) and in test [2] (read-out: CK1δ IC50 range) was 8.00 to 11.00 each time.

As to `CC1(NC(=O)N2CCn3nc(-c4ccc(F)c(Cl)c4)c(C(N)=O)c3C2)CC2(CC2)C1` [Compound 317, 2-(3-Chloro-4-fluorophenyl)-N^5-(5-methylspiro[2.3]hexan-5-yl)-6,7-dihydropyrazolo[1,5-a]pyrazine-3,5(4H)-dicarboxamide], the pIC50 in test [1] (read-out: CK1ε IC50 range) and in test [2] (read-out: CK1δ IC50 range) was 8.00 to 11.00 throughout.

On to `CC1(NC(=O)N2CCn3nc(-c4cccc(Cl)c4)c(C(N)=O)c3C2)CC2(CC2)C1` [Compound 318, 2-(3-Chlorophenyl)-N^5-(5-methylspiro[2.3]hexan-5-yl)-6,7-dihydropyrazolo[1,5-a]pyrazine-3,5(4H)-dicarboxamide], for which the pIC50 in test [1] (read-out: CK1ε IC50 range) and in test [2] (read-out: CK1δ IC50 range) was 8.00 to 11.00 each time.

Consider `CC1(NC(=O)N2CCn3nc(-c4ccc(Cl)c(Cl)c4)c(C(N)=O)c3C2)CC2(CC2)C1` [Compound 319, 2-(3,4-Dichlorophenyl)-N^5-(5-methylspiro[2.3]hexan-5-yl)-6,7-dihydropyrazolo[1,5-a]pyrazine-3,5(4H)-dicarboxamide], for which the pIC50 in test [1] (read-out: CK1ε IC50 range) and in test [2] (read-out: CK1δ IC50 range) was 8.00 to 11.00 throughout.

In the case of `N#CC1(NC(=O)N2CCn3nc(-c4ccc(F)c(Cl)c4)c(C(N)=O)c3C2)CCOC1` (centres unmarked) [Compound 334, 2-(3-Chloro-4-fluorophenyl)-N^5-(3-cyanotetrahydrofuran-3-yl)-6,7-dihydropyrazolo[1,5-a]pyrazine-3,5(4H)-dicarboxamide], the pIC50 in test [1] (read-out: CK1ε IC50 range) and in test [2] (read-out: CK1δ IC50 range) was 8.00 to 11.00 in each case.

In the case of `CC(C)(O)[C@H](F)CNC(=O)N1CCn2nc(-c3ccc(Cl)c(Cl)c3)c(C(N)=O)c2C1` [Compound 338, (R)-2-(3,4-Dichlorophenyl)-N^5-(2-fluoro-3-hydroxy-3-methylbutyl)-6,7-dihydropyrazolo[1,5-a]pyrazine-3,5(4H)-dicarboxamide], the pIC50 in test [1] (read-out: CK1ε IC50 range) and in test [2] (read-out: CK1δ IC50 range) was 8.00 to 11.00 throughout.

On to `NC(=O)c1c(-c2ccc(F)c(Cl)c2)nn2c1CN(C(=O)NC1CN(CC(F)(F)F)C1)CC2` [Compound 339, 2-(3-Chloro-4-fluorophenyl)-N^5-(1-(2,2,2-trifluoroethyl)azetidin-3-yl)-6,7-dihydropyrazolo[1,5-a]pyrazine-3,5(4H)-dicarboxamide], for which the pIC50 in test [1] (read-out: CK1ε IC50 range) and in test [2] (read-out: CK1δ IC50 range) was 8.00 to 11.00 each time.

Regarding `CC(C)(C)NC(=O)N1Cc2c(C(N)=O)c(-c3ccc(F)c(Cl)c3)nn2[C@H]2COC[C@H]21` [Compound 352, (5aS,8aR)—N^5-(tert-Butyl)-2-(3-chloro-4-fluorophenyl)-5a,6,8,8a-tetrahydrofuro[3,4-e]pyrazolo[1,5-a]pyrazine-3,5(4H)-dicarboxamide], the pIC50 is 7.70 in test [1] (read-out: CK1ε), 7.00 to 8.00 in test [1] (read-out: CK1ε IC50 range), 7.74 in test [2] (read-out: CK1δ) and 7.00 to 8.00 in test [2] (read-out: CK1δ IC50 range).

Regarding `NC(=O)c1c(-c2ccc(F)c(Cl)c2)nn2c1CN(C(=O)NC1CC(F)(F)C1)[C@@H]1COC[C@@H]12` [Compound 353, (5aS,8aR)-2-(3-Chloro-4-fluorophenyl)-N^5-(3,3-difluorocyclobutyl)-5a,6,8,8a-tetrahydrofuro[3,4-e]pyrazolo [1,5-c]pyrazine-3,5(4H)-dicarboxamide], the pIC50 in test [1] (read-out: CK1ε IC50 range) and in test [2] (read-out: CK1δ IC50 range) was 8.00 to 11.00 each time.

With `CC1(NC(=O)N2Cc3c(C(N)=O)c(-c4ccc(F)c(Cl)c4)nn3[C@H]3COC[C@H]32)CC(F)(F)C1` [Compound 354, (5aS,8aR)-2-(3-Chloro-4-fluorophenyl)-N^5-(3,3-difluoro-1-methylcyclobutyl)-5a,6,8,8a-tetrahydrofuro[3,4-e]pyrazolo [1,5-a]pyrazine-3,5(4H)-dicarboxamide], the pIC50 in test [1] (read-out: CK1ε IC50 range) and in test [2] (read-out: CK1δ IC50 range) was 8.00 to 11.00 each time.

Consider `CC(C)(C)NC(=O)N1Cc2c(C(N)=O)c(-c3cccc(Cl)c3)nn2C(CF)C1` (centres unmarked) [Compound A5, N^5-(tert-butyl)-2-(3-chlorophenyl)-7-(fluoromethyl)-6,7-dihydropyrazolo[1,5-a] pyrazine-3,5(4H)-dicarboxamide], for which the pIC50 in test [1] (read-out: CK1ε IC50 range) and in test [2] (read-out: CK1δ IC50 range) was 8.00 to 11.00 throughout.

As to `CC1(NC(=O)N2Cc3c(C(N)=O)c(-c4ccc(F)c(Cl)c4)nn3C(CF)C2)CC(F)(F)C1` (centres unmarked) [Compound A9, 2-(3-Chloro-4-fluorophenyl)-N^5-(3,3-difluoro-1-methylcyclobutyl)-7-(fluoromethyl)-6,7-dihydropyrazolo[1,5-a]pyrazine-3,5(4H)-dicarboxamide], the pIC50 in test [1] (read-out: CK1ε IC50 range) and in test [2] (read-out: CK1δ IC50 range) was 8.00 to 11.00 each time.

On to `CC1(NC(=O)N2Cc3c(C(N)=O)c(-c4ccc(F)c(Cl)c4)nn3C(CF)C2)CC(F)(F)C1` (centres unmarked) [Compound A10, 2-(3-Chloro-4-fluorophenyl)-N^5-(3,3-difluoro-1-methylcyclobutyl)-7-(fluoromethyl)-6,7-dihydropyrazolo[1,5-a]pyrazine-3,5(4H)-dicarboxamide], for which the pIC50 in test [1] (read-out: CK1ε IC50 range) and in test [2] (read-out: CK1δ IC50 range) was 8.00 to 11.00 each time.

Turning to `NC(=O)c1c(-c2ccc(F)c(Cl)c2)nn2c1CN(C(=O)NC1CCCC1)CC2C(F)F` (centres unmarked) [Compound A11, 2-(3-Chloro-4-fluorophenyl)-N^5-cyclopentyl-7-(difluoromethyl)-6,7-dihydropyrazolo[1,5-a]pyrazine-3,5(4H)-dicarboxamide], the pIC50 in test [1] (read-out: CK1ε IC50 range) and in test [2] (read-out: CK1δ IC50 range) was 8.00 to 11.00 throughout.

Take `NC(=O)c1c(-c2ccc(F)c(Cl)c2)nn2c1CN(C(=O)NC1CCCC1)CC2C(F)F` (centres unmarked) [Compound A12, 2-(3-Chloro-4-fluorophenyl)-N^5-cyclopentyl-7-(difluoromethyl)-6,7-dihydropyrazolo[1,5-a]pyrazine-3,5(4H)-dicarboxamide]: the pIC50 is 8.00 to 11.00 in test [1] (read-out: CK1ε IC50 range) and 7.00 to 8.00 in test [2] (read-out: CK1δ IC50 range).

Regarding `NC(=O)c1c(-c2ccc(F)c(Cl)c2)nn2c1CN(C(=O)NC1CCC(F)(F)CC1)C[C@H]2C(F)F` [Compound A13, (S)-2-(3-Chloro-4-fluorophenyl)-N^5-(4,4-difluorocyclohexyl)-7-(difluoromethyl)-6,7-dihydropyrazolo[1,5-a] pyrazine-3,5(4H)-dicarboxamide], the pIC50 in test [1] (read-out: CK1ε IC50 range) and in test [2] (read-out: CK1δ IC50 range) was 8.00 to 11.00 in each case.

Take `NC(=O)c1c(-c2ccc(F)c(Cl)c2)nn2c1CN(C(=O)NC1CCC(F)(F)CC1)C[C@@H]2C(F)F` [Compound A14, (R)-2-(3-Chloro-4-fluorophenyl)-N^5-(4,4-difluorocyclohexyl)-7-(difluoromethyl)-6,7-dihydropyrazolo[1,5-a] pyrazine-3,5(4H)-dicarboxamide]: the pIC50 in test [1] (read-out: CK1ε IC50 range) and in test [2] (read-out: CK1δ IC50 range) was 8.00 to 11.00 in each case.

Turning to `CC(C)(C)NC(=O)N1Cc2c(C(N)=O)c(-c3ccc(F)c(Cl)c3)nn2C(CN2CCOCC2)C1` (centres unmarked) [Compound A15, N^5-(tert-Butyl)-2-(3-chloro-4-fluorophenyl)-7-(morpholinomethyl)-6,7-dihydropyrazolo[1,5-a]pyrazine-3,5(4H)-dicarboxamide], the pIC50 in test [1] (read-out: CK1ε IC50 range) and in test [2] (read-out: CK1δ IC50 range) was 8.00 to 11.00 throughout.

`CC(C)(C)NC(=O)N1Cc2c(C(N)=O)c(-c3ccc(F)c(Cl)c3)nn2C(CN2CCOCC2)C1` (centres unmarked) [Compound A16, N^5-(tert-Butyl)-2-(3-chloro-4-fluorophenyl)-7-(morpholinomethyl)-6,7-dihydropyrazolo[1,5-a]pyrazine-3,5(4H)-dicarboxamide]: the pIC50 in test [1] (read-out: CK1ε IC50 range) is 8.00 to 11.00; in test [2] (read-out: CK1δ IC50 range) it was 7.00 to 8.00.
